Reference: patent US10821115B2, “Compounds that inhibit Mcl-1 protein” (priority 2017, dated 2020)
Read-outs that look alike come from different tables or passages of the source.

How the values were obtained:
[1] = tested on: human multiple myeloma cell line, OPM-2; test: Cell viability assay (OPM-2 10 FBS), CellTiter-Glo; assay type: cell-based
Outline: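 Serially diluted test compounds are incubated 16 h with cells (3000/well) in RPMI 1640 supplemented with 10% FBS. Viability is then measured by luminescence and IC50 calculated by 4-parameter logistic fit.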

[2] = molecular target: recombinant human Mcl-1 (residues 171-327) / Bim interaction (Homo sapiens (Human), UniProt Q07820); test: biochemical; assay type: binding; conditions: read-out: Mcl-1 HTRF IC50
[3] = Homo sapiens, OPM-2, 16 h, read-out: OPM-2 10% FBS IC50 IP, OPM-2 cells, 10% FBS, 16 h, CellTiter-Glo
[4] = TR-FRET, Mcl-1(171-327) / biotin-Bim (51-76)
[5] = read-out: OPM-2 10% FBS IC50 IP, OPM-2 cells, 10% FBS, 16 h incubation
[6] = 0.1 nM Mcl-1(171-327), 0.05 nM biotin-Bim (51-76)
[7] = Homo sapiens, OPM-2, 16 h, read-out: OPM-2 10% FBS IC50 IP, OPM-2 cells, 10% FBS, 16 h incubation

Sequence of recombinant human Mcl-1 (residues 171-327) / Bim interaction (Q07820 171-327): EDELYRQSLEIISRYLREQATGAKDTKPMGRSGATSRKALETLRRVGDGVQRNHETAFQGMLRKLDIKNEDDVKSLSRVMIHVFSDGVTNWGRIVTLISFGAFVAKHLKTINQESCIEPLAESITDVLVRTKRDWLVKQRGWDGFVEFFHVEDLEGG

## CC[C@@H]1CCCC[C@@]2(COCC(=O)O2)[C@@H]2CC[C@H]2CN2C[C@@]3(CCCc4cc(Cl)ccc43)COc3ccc(cc32)C(=O)NS1(=O)=O [Example 100043, (2S,3′R,6′R,12′R,22′S)-6″-chloro-12′-ethyl-3″,4″-dihydro-2″H,6H,15′H-dispiro[1,4-dioxane-2,7′-[20]oxa[13]thia[1,14]diazatetracyclo [14.7.2.0~3,6~.0~19,24~]pentacosa[16,18,24]triene-22′,1″-naphthalene]-6,15′-dione 13′,13′-dioxide]
[1]; [3]
  IC50: 7280 nM
[2]; [4]
  IC50: 1.67 nM

## (1S,3′R,6′R,7′S,8′E, 11′S,12′R)-6-chloro-12′-(2-chloroethyl)-7′-((9aS)-hexahydropyrazino[2,1-c][1,4]oxazin-8(1H)-ylmethyl)-7′-methoxy-11′-methyl-3,4-dihydro-2H,15′H-spiro[naphthalene-1,22′-[20]oxa[13]thia[1,14]diazatetracyclo[14.7.2.0-3,6˜.0˜19,24˜]pentacosa[8,16,18,24]tetraen]-15′-one 13′,13′-dioxide [Example 366]
[1]; [5]
  IC50: 133 nM
[2]; [6]
  IC50: 0.248 nM

## CO[C@@]1(CN2CCN3CCN(C(=O)CCS(=O)(=O)c4ccccc4)C[C@H]3C2)/C=C/C[C@H](C)[C@@H](C)S(=O)(=O)NC(=O)c2ccc3c(c2)N(C[C@@H]2CC[C@H]21)C[C@@]1(CCCc2cc(Cl)ccc21)CO3 (single isomer, unassigned) [Example 295]
[1]; [5]
  IC50: 104 nM
[2]; [6]
  IC50: 0.321 nM

## CCO[C@@]1(CN2CCN3CCOC[C@@H]3C2)/C=C/C[C@H](C)[C@@H](CC2CCC2)S(=O)(=O)NC(=O)c2ccc3c(c2)N(C[C@@H]2CC[C@H]21)C[C@@]1(CCCc2cc(Cl)ccc21)CO3 [Example 44, (1S,3′R,6′R,7′S,8′E,11′S,12′R)-6-chloro-12′-(cyclobutylmethyl)-7′-ethoxy-7′-((9aS)-hexahydropyrazino[2,1-c][1,4]oxazin-8(1H)-ylmethyl)-11′-methyl-3,4-dihydro-2H,15′H-spiro[naphthalene-1,22′-[20]oxa[13]thia[1,14]diazatetracyclo [14.7.2.0~3,6~.0~19,24~]pentacosa[8,16,18,24]tetraen]-15′-one 13′,13′-dioxide]
[1]; [7]
  IC50: 1360 nM
[2]; [6]
  IC50: 0.288 nM

## CC[C@@H]1CC/C=C/[C@](COCCN2CCOCC2)(OC)[C@@H]2CC[C@H]2CN2C[C@@]3(CCCc4cc(Cl)ccc43)COc3ccc(cc32)C(=O)NS1(=O)=O (single isomer, unassigned) [Example 100597]
[1]; [3]
  IC50: 577 nM
[2]; [4]
  IC50: 0.263 nM

## C[C@@H]1[C@@H](C)C/C=C/[C@](O)(c2cccnn2)[C@@H]2CC[C@H]2CN2C[C@@]3(CCCc4cc(Cl)ccc43)COc3ccc(cc32)C(=O)NS1(=O)=O [Example 100349, (1S,3′R,6′R,7′R,8′E,11′S,12′R)-6-chloro-7′-hydroxy-11′,12′-dimethyl-7′-(3-pyridazinyl)-3,4-dihydro-2H,15′H-spiro[naphthalene-1,22′-[20]oxa[13]thia[1,14]diazatetracyclo [14.7.2.0~3,6~.0~19,24~]pentacosa[8,16,18,24]tetraen]-15′-one 13′,13′-dioxide]
[1]; [3]
  IC50: 58 nM
[2]; [4]
  IC50: 1.15 nM

## CO[C@@]1(CN2CCN3CCC(F)(F)C[C@H]3C2)/C=C/C[C@H](C)[C@@H](C)S(=O)(=O)NC(=O)c2ccc3c(c2)N(C[C@@H]2CC[C@H]21)C[C@@]1(CCCc2cc(Cl)ccc21)CO3 (single isomer, unassigned) [Example 289]
[1]; [5]
  IC50: 131 nM
[2]; [6]
  IC50: 0.214 nM

## CO[C@@]1(CN2CCN3CCN(C)C[C@@H]3C2)/C=C/C[C@H](C)[C@@H](C)S(=O)(=O)NC(=O)c2ccc3c(c2)N(C[C@@H]2CC[C@H]21)C[C@@]1(CCCc2cc(Cl)ccc21)CO3 [Example 210]
[1]; [5]
  IC50: 185 nM
[2]; [6]
  IC50: 0.138 nM

## C[C@@H]1[C@@H](C)C/C=C/[C@@](O)(c2ncccn2)[C@@H]2CC[C@H]2CN2C[C@@]3(CCCc4cc(Cl)ccc43)COc3ccc(cc32)C(=O)NS1(=O)=O [Example 100275, (1S,3′R,6′R,7′S,8′E,11′S,12′R)-6-chloro-7′-hydroxy-11′,12′-dimethyl-7′-(2-pyrimidinyl)-3,4-dihydro-2H,15′H-spiro[naphthalene-1,22′-[20]oxa[13]thia[1,14]diazatetracyclo [14.7.2.0~3,6~.0~19,24~]pentacosa[8,16,18,24]tetraen]-15′-one 13′,13′-dioxide]
[1]; [3]
  IC50: 309 nM
[2]; [4]
  IC50: 0.113 nM

## C[C@@H]1[C@@H](C)C/C=C/[C@](C)(OCC2CCOCC2)[C@@H]2CC[C@H]2CN2C[C@@]3(CCCc4cc(Cl)ccc43)COc3ccc(cc32)C(=O)NS1(=O)=O [Example 100477, (1S,3′R,6′R,7′S,8′E,11′S,12′R)-6-chloro-7′,11′,12′-trimethyl-7′-(tetrahydro-2H-pyran-4-ylmethoxy)-3,4-dihydro-2H,15′H-spiro[naphthalene-1,22′-[20]oxa[13]thia[1,14]diazatetracyclo [14.7.2.0~3,6~.0~19,24~]pentacosa[8,16,18,24]tetraen]-15′-one 13′,13′-dioxide]
[1]; [3]
  IC50: 159 nM
[2]; [4]
  IC50: 0.313 nM

## CO[C@]1(c2nccn2C)/C=C/C[C@H](C)[C@@H](C)S(=O)(=O)NC(=O)c2ccc3c(c2)N(C[C@@H]2CC[C@H]21)C[C@@]1(CCCc2cc(Cl)ccc21)CO3 (single isomer, unassigned) [Example 100553]
[1]; [3]
  IC50: 2790 nM
[2]; [4]
  IC50: 1.04 nM

## CO[C@]1(CN2CCN3CCCC[C@@H]3C2)/C=C/C[C@H](C)[C@@H](C[C@H](C)O)S(=O)(=O)NC(=O)c2ccc3c(c2)N(C[C@@H]2CC[C@H]21)C[C@@]1(CCCc2cc(Cl)ccc21)CO3 (single isomer, unassigned) [Example 362]
[1]; [5]
  IC50: 58 nM
[2]; [6]
  IC50: 0.061 nM

## C[C@@H]1[C@@H](C)C/C=C/[C@@](O)(c2ccncc2)[C@@H]2CC[C@H]2CN2C[C@@]3(CCCc4cc(Cl)ccc43)COc3ccc(cc32)C(=O)NS1(=O)=O (single isomer, unassigned) [Example 100392]
[1]; [3]
  IC50: 129 nM
[2]; [4]
  IC50: 0.112 nM

## CO[C@@]1(CCN2CCCC2)/C=C/C[C@H](C)[C@@H](C)S(=O)(=O)NC(=O)c2ccc3c(c2)N(C[C@@H]2CC[C@H]21)C[C@@]1(CCCc2cc(Cl)ccc21)CO3 [Example 100412, (1S,3′R,6′R,7′S,8′E,11′S,12′R)-6-chloro-7′-methoxy-11′,12′-dimethyl-7′-(2-(1-pyrrolidinyl)ethyl)-3,4-dihydro-2H,15′H-spiro[naphthalene-1,22′-[20]oxa[13]thia[1,14]diazatetracyclo [14.7.2.0~3,6~.0~19,24~]pentacosa[8,16,18,24]tetraen]-15′-one 13′,13′-dioxide]
[1]; [3]
  IC50: 249 nM
[2]; [4]
  IC50: 0.097 nM

## C[C@H](C(=O)O)[C@@]1(O)/C=C/C[C@H](C)[C@@H](C)S(=O)(=O)NC(=O)c2ccc3c(c2)N(C[C@@H]2CC[C@H]21)C[C@@]1(CCCc2cc(Cl)ccc21)CO3 (single isomer, unassigned) [Example 100120]
[1]; read-out: OPM-2 10% FBS IC50 IP, OPM-2 cells, 10% FBS, 16 h, CellTiter-Glo
  IC50: 635 nM
[2]; [4]
  IC50: 0.067 nM

## COc1ncccc1[C@@]1(O)/C=C/C[C@H](C)[C@@H](C)S(=O)(=O)NC(=O)c2ccc3c(c2)N(C[C@@H]2CC[C@H]21)C[C@@]1(CCCc2cc(Cl)ccc21)CO3 (single isomer, unassigned) [Example 100333]
[1]; [3]
  IC50: 2170 nM
[2]; [4]
  IC50: 2.1 nM

## CO[C@@]1(CN2CCN(CCC#N)CC2)/C=C/C[C@H](C)[C@@H](C)S(=O)(=O)NC(=O)c2ccc3c(c2)N(C[C@@H]2CC[C@H]21)C[C@@]1(CCCc2cc(Cl)ccc21)CO3 [Example 318, 3-(4-(((1S,3′R,6′R,7′S,8′E,11′S, 12′R)-6-chloro-7′-methoxy-11′,12′-dimethyl-13′,13′-dioxido-15′-oxo-3,4-dihydro-2H-spiro[naphthalene-1,22′-[20]oxa[13]thia[1,14]diazatetracyclo [14.7.2.0~3,6~.0~19,24~]pentacosa[8,16,18,24]tetraen]-7′-yl)methyl)-1-piperazinyl)propanenitrile]
[1]; [7]
  IC50: 77 nM
[2]; [6]
  IC50: 0.138 nM

## CC[C@@H]1CC/C=C/[C@](CN2CCN3CCOC[C@@H]3C2)(OC)[C@@H]2CC[C@H]2CN2C[C@@]3(CCCc4cc(Cl)ccc43)COc3ccc(cc32)C(=O)NS1(=O)=O [Example 28, (1S,3′R,6′R,7′S,8′E,12′R)-6-chloro-12′-ethyl-7′-((9aS)-hexahydropyrazino[2,1-c][1,4]oxazin-8(1H)-ylmethyl)-7′-methoxy-3,4-dihydro-2H,15′H-spiro[naphthalene-1,22′-[20]oxa[13]thia[1,14]diazatetracyclo [14.7.2.0~3,6~.0~19,24~]pentacosa[8,16,18,24]tetraen]-15′-one 13′,13′-dioxide]
[1]; [7]
  IC50: 111 nM
[2]; [6]
  IC50: 0.082 nM

## CO[C@@]1(CN2CCN(CC(F)(F)F)CC2)/C=C/C[C@H](C)[C@@H](C)S(=O)(=O)NC(=O)c2ccc3c(c2)N(C[C@@H]2CC[C@H]21)C[C@@]1(CCCc2cc(Cl)ccc21)CO3 [Example 248, (1S,3′R,6′R,7′S,8′E,11′S,12′R)-6-chloro-7′-methoxy-11′,12′-dimethyl-7′-((4-(2,2,2-trifluoroethyl)-1-piperazinyl)methyl)-3,4-dihydro-2H,15′H-spiro[naphthalene-1,22′-[20]oxa[13]thia[1,14]diazatetracyclo [14.7.2.0~3,6~.0~19,24~]pentacosa[8,16,18,24]tetraen]-15′-one 13′,13′-dioxide]
[1]; [7]
  IC50: 518 nM
[2]; [6]
  IC50: 0.222 nM
